Measured values from US20210308138A1, “TISSUE TRANSGLUTAMINASE MODULATORS FOR MEDICINAL USE” (Aarhus Universitet, priority 2018, published 2021).
One block for each compound: values may come before it.

How the values were obtained:
purified human TG2 = target: T1, purified human TG2 (Homo sapiens, UniProt P21980); assay: Conformational shift assay by native polyacrylamide gel electrophoresis (native-PAGE); assay type: biochemical; conditions: TG2 2.5 uM; 1 mM LDN-27219, 1 mM GTPNa2, or 0.2 mM Z-DON with CaCl2
T1 construct: purchased Zedira (Darmstadt, Germany); host or cells: insect cells
T1 sequence (P21980 1-687): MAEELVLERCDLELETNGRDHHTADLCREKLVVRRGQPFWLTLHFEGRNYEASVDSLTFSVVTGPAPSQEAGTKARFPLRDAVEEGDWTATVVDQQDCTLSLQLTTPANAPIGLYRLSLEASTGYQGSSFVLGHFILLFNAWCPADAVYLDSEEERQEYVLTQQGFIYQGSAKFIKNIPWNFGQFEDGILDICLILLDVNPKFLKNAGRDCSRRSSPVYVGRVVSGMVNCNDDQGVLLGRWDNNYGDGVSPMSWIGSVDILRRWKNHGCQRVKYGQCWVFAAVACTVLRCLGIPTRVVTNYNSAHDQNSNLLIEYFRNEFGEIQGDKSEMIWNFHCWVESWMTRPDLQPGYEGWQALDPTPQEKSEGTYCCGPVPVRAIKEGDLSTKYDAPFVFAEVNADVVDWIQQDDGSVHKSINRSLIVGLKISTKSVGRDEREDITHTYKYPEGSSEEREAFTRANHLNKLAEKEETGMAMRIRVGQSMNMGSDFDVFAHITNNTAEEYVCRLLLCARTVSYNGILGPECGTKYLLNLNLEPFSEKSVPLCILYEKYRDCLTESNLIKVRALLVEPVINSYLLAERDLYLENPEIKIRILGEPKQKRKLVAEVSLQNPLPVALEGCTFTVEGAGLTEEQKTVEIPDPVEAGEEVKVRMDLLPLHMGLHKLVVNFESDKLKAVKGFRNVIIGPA
Procedure: For the conformational shift assay using native polyacrylamide gel electrophoresis (native-PAGE) purified and functional human TG2 protein produced in insect cells was obtained from Zedira (Darmstadt, Germany).
Native gel electrophoresis experiments were performed using a method similar to those previously described (Pinkas D M, et al., PLoS Biol, 2007, 5(12), 2788-2796.) (Iversen R, et al., Proc Natl. Acad. Sci., 2014, 111(43), 17146-17151). Briefly, TG2 (2.5 uM) was incubated for 30 min at room temperature in preincubation buffer (75 mM imidazole, 0.5 mM EDTA, 5 mM DTT [pH 7.2], 10% DMSO) with or without 1 mM GTPNa2 or 1 mM LDN-27219 before adding Native Sample Buffer for Protein Gels (Bio-Rad) or in preincubation buffer with 0.2 mM Z-DON 30 min prior addition of 5 mM of CaCl2 for 20 min. Native buffer was added (dilution 1:2), and 1.5 ug of protein was loaded onto a 4-20% Criterion™ TGX Stain-Free™ gel (Bio-Rad) using Tris-glycine as the running buffer. For 75 min, 125 V was applied at 4° C. The bands were visualized using stain-free technology by exposing the gels to UV light and capturing the image using a PXi 4 Touch image analysis system (Syngene). Band intensity analysis was carried out using GeneTools 4 software (Syngene).

[1] = test system: vascular smooth muscle cells (VSMCs) potassium currents; assay: Whole-cell patch-clamp of K+ outward currents in isolated vascular smooth muscle cells; assay type: cell-based, rat; conditions: LDN-27219 3·10^−5 mol/L 12 min; VA-5 5·10^−5 mol/L one hour incubation
Procedure: For isolation of VSMCs, rat mesenteric arteries were dissected as previously described, opened longitudinally and stored in ice-cold dissociation solution containing (mmol/L): 119 NaCl, 4.7 KCl, 1.18 KH2PO4, 1.17 MgSO4, 24.9 NaHCO3, 0.027 EDTA, and 11 glucose, pH=7.4. Arteries were then equilibrated during 10 min in a dissociation solution with bovine albumin serum (BSA; 1 mg/mL) at 37° C. and then exposed to the same solution supplemented with papain (0.5 mg/mL; Worthington Biochemical Corp., Lakewood, N.J., USA) and dithiothreitol (DTT; 1 mg/mL) at 37° C. for 8 min. Arteries were then washed in ice-cold dissociation solution and moved to dissociation solution containing BSA (1 mg/mL) and collagenase (0.7 mg/mL type F and 0.4 mg/mL type H; Worthington Biochemical Corp.) at 37° C. for 3 min. […]
Membrane currents were recorded under the whole-cell configuration of the patch-clamp technique using an Axon Multiclamp 700A amplifier (Axon instruments, Molecular Devices, CA, USA). […] Current-voltage relations were determined using 600 ms voltage ramps from −100 to 160 mV and a holding potential (Vh) of −65 mV for SMCs.
Amplitudes of K^+-outward currents were measured in control conditions and 12 min after the addition of LDN-27219 (3·10^−5 mol/L) to the extracellular solution by a perfusion system.

[2] = test system: small mesenteric arteries; assay: Acetylcholine-induced endothelium-dependent relaxation of phenylephrine pre-contracted small mesenteric arteries, isometric myograph (ex vivo); parameters: species or system Male Wistar rats; conditions: 1 hour incubation; Z-DON 4·10^−5, Boc-DON 10^−5, VA-5 10^−5 mol/L; 12-14 weeks old rats
Procedure: Small mesenteric arteries were mounted in microvascular myographs (Danish Myotechnology, Aarhus, Denmark) using two 40 μm wires and stretched to their optimal diameter for isometric tension recordings, which corresponded to 0.9 times the estimated internal diameter at 100 mmHg of transmural pressure. PSS solution in the myograph bath was heated to 37° C. and continuously bubbled with 5% CO2 in air to maintain pH (7.4). The vessel viability was tested at the beginning of each experiment by measuring the vasoconstrictor responses to a solution with a high K^+ concentration (KPSS), equivalent to PSS except that NaCl was exchanged for KCl on an equimolar basis, giving a final concentration of 123.7 mmol/L K^+ and the presence of endothelium was confirmed by addition of acetylcholine (ACh) (10^−5) after pre-constriction with noradrenaline (5·10^−6 mol/L), arteries with less than 75% of relaxation were discarded.
Mesenteric arteries from rats of different age were incubated with (10^−6 mol/L) LDN-27219 or vehicle for 25 minutes and pre-contracted with phenylephrine (Phe) (10^−5 mol/L). Then cumulative addition of acetylcholine (ACh) caused the relaxation of the mesenteric arteries and the concentration-response curves were constructed.
Rats of 5-7 weeks age, about 12 weeks age, and more than 30 weeks of age were tested respectively. The results of the isometric tension studies are shown in FIGS. 1, A), B) and C) respectively, each representing a different their age group.
(§1) The small mesenteric arteries were prepared in the same way is described in example 1.

Male Wistar rats = assay: Mean arterial pressure (MAP) in vivo measurement after intrajugular infusion; conditions: VA-5 single dose 1 mg/kg, intrajugular infusion during 3 minutes; adult and older rats
Procedure: For ‘in vivo’ experiments Wistar rats of different age were fasted 8 h before anesthesia with 35 mg/kg of S-ketamine and 50 mg/kg of pentobarbital sodium administered intraperitoneally.
Male Wistar rats with 12-14 and 30-35 weeks of age were anesthetized with s-ketamine (35 mg/kg) and pentobarbital (50 mg/kg) and placed on a heated blanket to maintain body temperature at 37° C. ECG needles were installed for electrocardiographic measurements and a solid state catheter (Millar Inc, Houston, USA) was introduced into the carotid artery to measure MAP. MAP and electrocardiographic data was continuously recorded on a computerized data acquisition system (PowerLab, ADInstruments). Adequate depth of anesthesia was checked periodically by the absence of the toe pinch withdrawal effect and ⅓ of the initial dose of anesthetics was administered intraperitoneally when needed (usually each 1½ h). Changes in MAP and electrocardiographic signal in response to intrajugular infusion during 3 minutes of different doses of LDN-27219 and the corresponding vehicle (PEG-400) were studied.
The Area Under the Curve (AUC) was calculated using Graphpad Prism 5.1 (GraphPad Software, San Diego, Calif., USA) for each response to the change in MAP that was collected during the experiments in example 3. The AUC gives information about the maximal response, and about the duration of the effect.
Rats of different age in these experiments were anesthetized, prepared and catheterized as described in Example 3.

[3] = test system: small mesenteric arteries; conditions: M. Engholm et al., British J. Pharm. (2016), 173, 839-855; cited from earlier work
[4] = test system: small mesenteric arteries; assay: Direct relaxation of U46619 pre-contracted small mesenteric arteries, concentration-response curves; parameters: species or system Male Wistar rats; conditions: U46619 4·10^−7 mol/L; LDN-27219 10^−8-10^−5 mol/L; Z-DON 10^−8-3·10^−4 mol/L; endothelium intact
Procedure: as §1
The small mesenteric arteries were pre-contracted with the thromboxane analogue, U46619 (4·10^−7 mol/L) and concentration-response curves for TG2 specific inhibitors, LDN-27219 (10^−8-10^−5 mol/L) and Z-DON (10^−8-3·10^−4 mol/L) were constructed. To study the role of the endothelial pathways in LDN-27219 relaxation, concentration-response curves were constructed for it in arteries whose endothelium had been removed mechanically by rubbing the lumen repeatedly with a human scalp hair.

Compound: Nc1nc2c(ncn2[C@@H]2O[C@H](COP(=O)([O-])OP(=O)([O-])OP(=O)([O-])[O-])[C@@H](O)[C@H]2O)c(=O)[nH]1.[Na+].[Na+].[Na+].[Na+] [GTP, guanosine 5′-triphosphate sodium salt]
relative abundance of closed / open conformation of TG2 (purified human TG2): completely force TG2 to its closed conformation

Compound: C=CC(=O)NCCCC[C@H](NC(=O)OCc1ccccc1)C(=O)N1CCN(C(=O)c2cc3ccc(O)cc3oc2=O)CC1 [VA-5, (S)-Benzyl (6-acrylamido-1-(4-(7-hydroxy-2-oxo-2H-chromene-3-carbonyl)piperazin-1-yl)-1-oxohexan-2-yl)carbamate, reference compound]
potassium currents compared to control conditions [1]: significantly smaller potassium currents
ACh relaxation compared to the vehicle [2]: slight inhibition of ACh relaxation
mean blood pressure (MAP) (Male Wistar rats): did not produce any change in the mean blood pressure

Compound: NCCSSCCN [cystamine]
effects on endothelial pathways [3]: lacked effects on endothelial pathways

Compound: Boc-DON-Gln-Ile-Val-OMe [reference compound]
ACh relaxation compared to the vehicle [2]: no significant effect

relative abundance of closed / open conformation of TG2 (purified human TG2): force its open conformation
Compound: Z-DON-Val-Pro-Leu-OMe [reference compound]
ACh relaxation compared to the vehicle [2]: slight inhibition of ACh relaxation
relaxation of U46619 pre-contracted arteries [4]: failed to induce any vasodilation
